Laboratory results taken from patent US6770261B2, “Magnetic resonance imaging agents for the detection of physiological agents” (Research Corporation Technologies, priority 1995, dated 2004).
Like-named read-outs stand apart in the source and are kept apart here. One block for each compound: values may come before it.

What was measured:
[1] = From the text: FIG. 16 depicts the relaxivity of the CalGad complex as a function of calcium ion concentration.
The effect of Ca2^+ on the relaxivity of the complex

[2] = for T1: 0.4 mM
Procedure: The effect of pH on the relaxivity of the complex
The T1 of the Gd3^+-complex (0.4 mM in the buffer containing 100 mM KC1, 10 mM MOPS, 2 mM K2H2EGTA or 2 mM K2CaEGTA) was measured under different pH.

[3] = for T1: 0.4 mM, 1 mM K2H2EGTA
Procedure: The effect of Mg^2+ on the relaxivity of the complex
The T1 of the Gd^3+-complex (0.4 mM in the buffer containing 132 mM KC1, 10 mM MOPS, 1 mM K2H2EGTA, pH 7.20) was measured.

[4] = literature value used for comparison (Lauffer); cited from earlier work
[5] = Relaxivity R by NMR spectroscopy at 500 MHz; assay type: physicochemical; set-up: unit not given here
β-galactosidase [6] = biological target: T1, β-galactosidase (Escherichia coli, UniProt P00722)
T1 sequence (P00722 2-1024): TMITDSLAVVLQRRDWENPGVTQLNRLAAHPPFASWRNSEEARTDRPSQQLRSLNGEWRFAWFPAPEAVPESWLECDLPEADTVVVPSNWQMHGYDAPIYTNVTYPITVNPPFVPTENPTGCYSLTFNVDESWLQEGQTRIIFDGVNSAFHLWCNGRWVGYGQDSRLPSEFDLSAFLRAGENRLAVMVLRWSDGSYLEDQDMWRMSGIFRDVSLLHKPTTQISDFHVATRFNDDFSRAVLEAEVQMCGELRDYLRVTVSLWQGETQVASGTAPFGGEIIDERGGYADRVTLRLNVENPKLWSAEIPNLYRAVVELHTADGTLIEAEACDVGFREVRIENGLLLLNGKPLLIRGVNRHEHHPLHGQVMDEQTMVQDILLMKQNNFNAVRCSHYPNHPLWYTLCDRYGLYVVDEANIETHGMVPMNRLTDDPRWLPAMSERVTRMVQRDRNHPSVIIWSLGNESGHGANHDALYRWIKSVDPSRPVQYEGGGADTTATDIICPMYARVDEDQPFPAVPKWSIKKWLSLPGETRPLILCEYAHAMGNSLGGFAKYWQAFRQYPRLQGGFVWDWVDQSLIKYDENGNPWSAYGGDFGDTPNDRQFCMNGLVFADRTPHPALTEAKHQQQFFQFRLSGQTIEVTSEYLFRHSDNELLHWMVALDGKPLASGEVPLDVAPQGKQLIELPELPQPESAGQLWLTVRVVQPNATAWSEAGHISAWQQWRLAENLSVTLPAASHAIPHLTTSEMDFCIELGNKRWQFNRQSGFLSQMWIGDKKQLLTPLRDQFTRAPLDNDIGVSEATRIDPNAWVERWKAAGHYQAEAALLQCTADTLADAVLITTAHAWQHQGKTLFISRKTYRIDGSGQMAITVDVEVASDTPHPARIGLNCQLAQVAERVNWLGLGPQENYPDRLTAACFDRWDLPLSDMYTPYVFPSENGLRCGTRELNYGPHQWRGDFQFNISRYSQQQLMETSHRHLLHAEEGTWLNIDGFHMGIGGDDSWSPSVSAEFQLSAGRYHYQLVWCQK
Source text: Characterization: The ability of β-galactosidase to remove the galactopyranosal blocking group from GadGal was examined by HPLC. The cleavage reaction was monitored using the distinct retention times of the complex and the complex without the galactopyranose residue.

β-galactosidase [7] = biological target: T1, β-galactosidase; conditions: for increase in signal (enhancement) in the presence of β-galactosidase: upon exposure to β-galactosidase
Procedure: FIG. 9 depicts the change in T1 observed upon the β-galactosidase catalyzed cleavage of the galactopyranose residue (n=3). The first Column of each pair (1,3,5) represents the T1 of the galactose-DOTA complex and β-galactosidase mixture immediately after addition. The second column represents the T1 of the solution after a period of time in the presence of β-galactosidase. Each column is reported as a ratio to a control containing only the complex. Column 1 and 2: 2.0 mM Gd complex plus 1.7 uM β-galactosidase phosphate buffer (25 mM) pH 7.3. Column 3 and 4: 2.0 mM Gd plus 5.1 uM β-galactosidase phosphate buffer (25 mM) pH 7.3. Column 5 and 6: 2 mM Gd complex plus 5.1 uM heat inactivated β-galactosidase (10 minutes at 80 degrees) phosphate buffer (25 mM) pH 7.3. […] A minimal concentration of enzyme was used in these experiments to reduce potential effects of any contrast agent-enzyme interactions. T1 were carried out using a Bruker AMX 500 spectrometer at 26 degrees using a standard inversion-recovery sequence. The solution was placed in a 40 ul round bottomed NMR tube insert (Wilmad glass) and inserted into a tube containing d3-chloroform. A two dimensional data file was collected containing 16 different inversion delays with 8 scans each. The raw nmr data was processed (Felix, BIOSYM/Molecular Simulations, San Diego, Calif.) and the peak heights were fitted to an exponential rise to a max to obtain T1.
The effect of the enzymatic cleavage of the galactopyranose on the T1 of the complex was assessed using NMR spectroscopy.
The effect of the enzymatic cleavage of the galactopyranose unit from EGadMe and CarboxyMe on relaxation time T1 was determined by NMR spectroscopy at 500 MHz and 24° C. Various aqueous solutions of 0.5 mM EGadMe and CarboxyMe, respectively, were prepared, containing either: (a) no enzyme; (b) heat inactivated 5 μM β-galactosidase that was treated at 80° C. for 10 min; (c) 5 μM β-galactosidase where T1 was measured immediately after mixing; or (d) 5 μM β-galactosidase that was reacted with the complex for 3.5 days at 37° C.

relaxivity R ([1]; in the absence of Ca^2+): 3.03 mM⁻¹ s⁻¹
relaxivity R ([1]; in the presence of Ca^2+): 5.53 mM⁻¹ s⁻¹
T1 ([2]; 2 mM K2CaEGTA, pH 6.80): 390 ms
T1 ([2]; 2 mM K2CaEGTA, pH 7.00): 393 ms
T1 ([2]; 2 mM K2CaEGTA, pH 7.20): 394 ms
T1 ([2]; 2 mM K2CaEGTA, pH 7.40): 397 ms
T1 ([2]; 2 mM K2H2EGTA, pH 6.80): 600 ms
T1 ([2]; 2 mM K2H2EGTA, pH 7.00): 605 ms
T1 ([2]; 2 mM K2H2EGTA, pH 7.20): 604 ms
T1 ([2]; 2 mM K2H2EGTA, pH 7.40): 608 ms
effect of changing pH on the relaxivity ([2]; pH 6.80 to 7.40, in the presence or absence of Ca^2+): minimum effects
T1 ([3]; pH 7.20, Mg^2+ 0 mM): 607 ms
T1 ([3]; pH 7.20, Mg^2+ 1 mM): 602 ms
T1 ([3]; pH 7.20, Mg^2+ 2 mM): 601 ms
T1 ([3]; pH 7.20, Mg^2+ 5 mM): 609 ms
T1 ([3]; pH 7.20, Mg^2+ 10 mM): 607 ms
T1 ([3]; pH 7.20, Mg^2+ 20 mM): 610 ms
effect of changing Mg^2+ concentration on the relaxivity ([3]; Mg^2+ 0 to 20 mM): minimum effects
Compound: O=C([O-])CN1CCN(CCCOc2cccc(OCCOc3cccc(OCCCN4CCN(CC(=O)[O-])CCN(CC(=O)[O-])CCN(CC(=O)[O-])CC4)c3N(CC(=O)O)CC(=O)O)c2N(CC(=O)O)CC(=O)O)CCN(CC(=O)[O-])CCN(CC(=O)[O-])CC1.[Gd+3].[Gd+3] [CalGad, Gd^3+-BAPTA-DO3A2]

Compound: O=C([O-])CN1CCN(CC(=O)[O-])CCN(CC(=O)O)CCN(CC(=O)[O-])CC1.[Gd+3] [Gd-DOTA]
q (number of coordinating water molecules) [4]: 1.2

Compound: Do3a-hydroxyethyl-beta-galactose Gadolinium complex [GadGal]
relaxivity R [5]: 1800
cleavage of galactopyranose (HPLC traces) (β-galactosidase [6]; incubated with β-galactosidase for 7 days, phosphate buffer pH 7.3): greater than 95%
enzymatic processing of the complex (HPLC) (β-galactosidase [6]; native vs heat-inactivated β-galactosidase): enzymatic processing of the complex by native but not heat-treated enzyme
difference between measured T1 values in the presence and absence of β-galactosidase (β-galactosidase [7]; 2.0 mM Gd complex, 1.7 or 5.1 uM β-galactosidase, pH 7.3, 500 MHz): 20%
change of solution T1 with heat inactivated enzyme (β-galactosidase [7]; control, heat inactivated β-galactosidase): no decrease
increase in signal (enhancement) in the presence of β-galactosidase (β-galactosidase [7]; listed as Example 1 compound): roughly 20%
increase in signal (enhancement) in the presence of β-galactosidase (β-galactosidase [7]; listed as galactose-DOTA structure of Example 1): ~20%
